This note sets out measurements from patent US20220306623A1, “PYRIDYL OR PYRIMIDYL MTOR KINASE INHIBITORS” (GLAXOSMITHKLINE INTELLECTUAL PROPERTY DEVELOPMENT LIMITED, priority 2019, published 2022).

This test deals with type I collagen deposition in primary lung fibroblasts derived from human tissue. Kind of test: High throughput type I collagen deposition (scar-in-a-jar) high content screening assay. The note with it: Primary lung fibroblast, 72 h, human pulmonary fibroblasts, 384-well, TGF-β 1 ng/ml 72 h. The class given is cell-based. As for the experimental part: Highthroughput, cellular type I collagen deposition was measured by adapting a published method; scar-in-a-jar (Chen et al., 2009) to primary lung fibroblasts derived from human tissue and combining with high content analysis to permit fluorescent quantification of collagen deposited in the extracellular matrix (ECM). The human biological samples were sourced ethically and their research use was in accordance with the terms of the informed consents.
Test compounds were dissolved in 100% DMSO to give 10 mM (stocks) and further diluted to give half log dilutions to generate an 11 point concentration response curve. 1 ul was transferred to 384-well plates (Greiner Group, Kremsmunster, Austria, Catalogue No Greine 781280r).
Human pulmonary fibroblasts were maintained in DMEM media (Gibco, Catalogue No 21969) supplemented with 4 mM L-glutamine (Gibco Catalogue No 25030-024) and 10% heat inactivated FBS (Gibco, Catalogue No 10099-141) at 37° C. in 10% CO2. Cells were harvested and resuspended at 4×10^6 cells/ml in a T175 cell culture flask (BD Falcom, Catalogue No: 353112) containing 50 mL of culture media. After 4 days 37° C. in 10% CO2, cells were harvested and seeded at 4000 cells per well ([…]) into 384-well plates (BD Falcon, Catalogue No 353962Greiner) in assay media (0.4% heat inactivated FBS, 4 mM L-glutamine). Plates were sealed with breathable seals (Sigma, Catalogue No. BEM-1). Assay plates were incubated for 72 h at 37° C. in 10% CO2.
Assay media was supplemented with 112.5 mg/ml Ficoll 70 (Sigma, Catalogue No F2878), 75 mg/ml Ficoll 400 (Sigma, Catalogue No F4375) and 50 µg/ml ascorbic acid (Sigma, Catalogue No A8960). 30 μL assay media were added to 1 l compound ([…] compound concentration in 1% DMSO). Diluted compounds (10 μL) were transferred to plates containing cells and incubated for 3 h at 37° C. in 10% CO2. Transforming growth factor (TGF)-β (R&D systems, Catalogue No 100-B/CF) was reconstituted to give 10 µg/mL (stock) and further diluted in assay media containing Ficoll and ascorbic acid (1 in 3333). TGF-β was added to cell plates (1 ng/ml final) and cells incubated for 72 h at 37° C. in 10% CO2.
Media was aspirated from cells and 30 µL/well 100% ice-cold methanol added and incubated at RT for 5 min to fix cells. Methanol was aspirated and cells washed with PBS (3×). To block and permeabilise, cells were incubated with PBS containing 1% BSA and 0.1% Triton X 100 for 20 min, followed by PBS wash (3×). Cells were incubated with mouse anti human type I collagen monoclonal antibody (Sigma, Catalogue No C2456) diluted 1:1000 in PBS for 24 h at 4° C. Cells were washed with PBS containing 0.1% Tween-20 (3×) and incubated with secondary alexa fluor 488 goat-anti-mouse antibody (Invitrogen, Catalogue No A11001, 1 in 500 in PBS) and Hoechst 33342 (Sigma, Catalogue No H21492), 1 in 1000 in PBS) for 1 h at RT, prior to washing with PBS containing 0.1% Tween (×4).
Type I collagen immunoreactivity was detected using the INCell 2000 Analyzer (GE Healthcare, INcell 2000) set to excitation and emission wavelengths for DAPI and FITC with laser focus and exposure adjusted to appropriate levels. Images were imported and analysed using Columbus software (Perkin Elmer) and computational algorithms to quantify “total collagen area” and “cell count”.
Data analysis was performed by determining 0/inhibition values for test compounds relative to the minimum (media only) and maximum responses (TGF-βstimulation) with non-linear regression analysis to determine IC50 values for test compounds.

The mark [1] stands for this setting: total collagen area, read-out: mean pIC50, high throughput type I collagen deposition (scar-in-a-jar) (converted).
Setting [2] is: selected compounds, read-out: Scar in a jar (mean pIC50 values when tested in the scar-in-a-jar assay) (converted).

Where two headings read alike, the source gives them in different places.

On to `CC[C@H]1COCC(=O)N1c1cc(C2(S(C)(=O)=O)CCOCC2)cc(-c2ccc3[nH]c(CO)cc3n2)n1` [Example 26], for which, under setting [1], the IC50 was 20 to 3160 nM.

As to `CC[C@H]1COCC(=O)N1c1cc(CS(C)(=O)=O)cc(-c2ccc3[nH]c(C)cc3n2)n1` [Example 24, (S)-5-ethyl-4-(6-(2-methyl-1H-pyrrolo[3,2-b]pyridin-5-yl)-4-((methylsulfonyl)methyl)pyridin-2-yl)morpholin-3-one], the IC50 reads like this: under setting [2], 126 nM; under setting [1], 20 to 3160 nM.

On to `CC[C@H]1COCCN1c1cc(C2(S(C)(=O)=O)CCOCC2)nc(-c2ccc3[nH]c(C)cc3n2)n1` [Example 13, (3S)-3-ethyl-4-[6-(4-methanesulfonyloxan-4-yl)-2-{2-methyl-1H-pyrrolo[3,2-b]pyridin-5-yl}pyrimidin-4-yl]morpholine], for which the IC50 under setting [1] was 20 to 3160 nM. As to `CC[C@H]1COCCN1c1cc(CS(C)(=O)=O)nc(-c2ccc3[nH]c(CNC)cc3n2)n1` [Example 1, [(5-{4-[(3S)-3-ethylmorpholin-4-yl]-6-(methanesulfonylmethyl)pyrimidin-2-yl}-1H-pyrrolo[3,2-b]pyridin-2-yl)methyl](methyl)amine], the IC50 reads like this: under setting [2], 251 nM; under setting [1], 20 to 3160 nM. On to `CC[C@H]1COCC(=O)N1c1cc(C2(S(C)(=O)=O)CCOCC2)cc(-c2ccc3[nH]c(C)cc3n2)n1` [Example 25, (S)-5-ethyl-4-(6-(2-methyl-1H-pyrrolo[3,2-b]pyridin-5-yl)-4-(4-(methylsulfonyl)tetrahydro-2H-pyran-4-yl)pyridin-2-yl)morpholin-3-one], for which the IC50 under setting [1] is 20 to 3160 nM. Take `CNCc1cc2nc(-c3cc(CS(C)(=O)=O)cc(N4CCO[C@H](C)[C@H]4C)n3)ccc2[nH]1` [Example 8, 1-(5-(6-((2R,3R)-2,3-dimethylmorpholino)-4-((methylsulfonyl)methyl)pyridin-2-yl)-1Hpyrrolo[3,2-b]pyridin-2-yl)-Nmethylmethanamine]: the IC50 under setting [1] is 20 to 3160 nM. For the compound `CC[C@H]1COCCN1c1cc(CS(=O)(=O)N(C)C)nc(-c2ccc3[nH]c(CO)cc3n2)n1` [Example 9, 1-{6-[(3S)-3-ethylmorpholin-4-yl]-2-[2-(hydroxymethyl)-1H-pyrrolo[3,2-b]pyridin-5-yl]pyrimidin-4-yl}-N,N-dimethylmethanesulfonamide], under setting [1], the IC50 was 20 to 3160 nM. As for `CC[C@H]1COCCN1c1cc(CS(N)(=O)=O)cc(-c2ccc3[nH]c(C)cc3n2)n1` [Example 23, (S)-(2-(3-ethylmorpholino)-6-(2-methyl-1H-pyrrolo[3,2-b]pyridin-5-yl)pyridin-4-yl)methanesulfonamide], the IC50 under setting [1] is 20 to 3160 nM. As for `CC[C@H]1COCCN1c1cc(CS(=O)(=O)N(C)C)nc(-c2ccc3[nH]c(CNC)cc3n2)n1` [Example 16, 1-{6-[(3S)-3-ethylmorpholin-4-yl]-2-{2-[(methylamino)methyl]-1H-pyrrolo[3,2-b]pyridin-5-yl}pyrimidin-4-yl}-N,N-dimethylmethanesulfonamide], the IC50 under setting [2] is 100 nM and the IC50 under setting [1] is 20 to 3160 nM.

With `CCc1cc2nc(-c3nc(CS(C)(=O)=O)cc(N4C(=O)COC[C@@H]4CC)n3)ccc2[nH]1` [Example 15, (5S)-5-ethyl-4-(2-{2-ethyl-1H-pyrrolo[3,2-b]pyridin-5-yl}-6-(methanesulfonylmethyl)pyrimidin-4-yl)morpholin-3-one], the IC50 runs as follows: under setting [2], 158 nM; under setting [1], 20 to 3160 nM. With `CC[C@H]1COCCN1c1cc(CS(=O)(=O)NC)nc(-c2ccc3[nH]c(CO)cc3n2)n1` [Example 10, 1-{6-[(3S)-3-ethylmorpholin-4-yl]-2-[2-(hydroxymethyl)-1H-pyrrolo[3,2-b]pyridin-5-yl]pyrimidin-4-yl}-N-methylmethanesulfonamide], under setting [1], the IC50 is 20 to 3160 nM. Regarding `CC[C@H]1COCC(=O)N1c1cc(CS(C)(=O)=O)nc(-c2ccc3[nH]c(C)cc3n2)n1` [Example 14, (5S)-5-ethyl-4-[6-(methanesulfonylmethyl)-2-{2-methyl-1H-pyrrolo[3,2-b]pyridin-5-yl}pyrimidin-4-yl]morpholin-3-one], the IC50 was 25.1 nM under setting [2] and 20 to 3160 nM under setting [1]. In the case of `CC[C@H]1COCCN1c1cc(C2(S(C)(=O)=O)CCNCC2)cc(-c2ccc3[nH]c(C)cc3n2)n1` [Example 18, (S)-3-ethyl-4-(6-(2-methyl-1H-pyrrolo[3,2-b]pyridin-5-yl)-4-(4-(methylsulfonyl)piperidin-4-yl)pyridin-2-yl)morpholine], the IC50 was 158 nM under setting [2] and 20 to 316 nM under setting [1].

Turning to `CC[C@H]1COCCN1c1cc(CS(N)(=O)=O)nc(-c2ccc3[nH]c(CNC)cc3n2)n1` [Example 6, {6-[(3S)-3-ethylmorpholin-4-yl]-2-{2-[(methylamino)methyl]-1H-pyrrolo[3,2-b]pyridin-5-yl}pyrimidin-4-yl}methanesulfonamide], the IC50 under setting [1] is 20 to 3160 nM.

Regarding `CC[C@H]1COCC(=O)N1c1cc(CS(C)(=O)=O)cc(-c2ccc3[nH]c(CO)cc3n2)n1` [Example 27], under setting [1], the IC50 was 20 to 3160 nM.

Regarding `CC[C@H]1COCCN1c1cc(C2(S(C)(=O)=O)CCOCC2)nc(-c2ccc3[nH]c(CO)cc3n2)n1` [Example 4, (5-{4-[(3S)-3-ethylmorpholin-4-yl]-6-(4-methanesulfonyloxan-4-yl)pyrimidin-2-yl}-1H-pyrrolo[3,2-b]pyridin-2-yl)methanol], the IC50 under setting [1] is 20 to 3160 nM. With `CC[C@H]1COCCN1c1cc(CS(C)(=O)=O)nc(-c2ccc3[nH]c(CO)cc3n2)n1` [Example 2, (S)-(5-(4-(3-ethylmorpholino)-6-((methylsulfonyl)methyl)pyrimidin-2-yl)-1H-pyrrolo[3,2-b]pyridin-2-yl)methanol], the IC50 under setting [1] is 20 to 3160 nM.
